# Where two headings read alike, the source gives them in different places.
# Tests used:
# [1] = target: T1, MRP2 (Rattus norvegicus, UniProt Q63120); assay: Influence of emodin on MRP2 function: pravastatin bidirectional transport in the presence of emodin (Ussing chamber); type: in vitro ADME; set-up: intestinal segments including duodenum, jejunum, ileum, and colon from anesthetized rats were immediately removed by surgery; from tissue; host or cells: stripped rat intestine (jejunum and ileum in validation; jejunum for the emodin studies); conditions: rat jejunum; for Papp at 47 μM: rat
# T1 sequence (Q63120 whole entry): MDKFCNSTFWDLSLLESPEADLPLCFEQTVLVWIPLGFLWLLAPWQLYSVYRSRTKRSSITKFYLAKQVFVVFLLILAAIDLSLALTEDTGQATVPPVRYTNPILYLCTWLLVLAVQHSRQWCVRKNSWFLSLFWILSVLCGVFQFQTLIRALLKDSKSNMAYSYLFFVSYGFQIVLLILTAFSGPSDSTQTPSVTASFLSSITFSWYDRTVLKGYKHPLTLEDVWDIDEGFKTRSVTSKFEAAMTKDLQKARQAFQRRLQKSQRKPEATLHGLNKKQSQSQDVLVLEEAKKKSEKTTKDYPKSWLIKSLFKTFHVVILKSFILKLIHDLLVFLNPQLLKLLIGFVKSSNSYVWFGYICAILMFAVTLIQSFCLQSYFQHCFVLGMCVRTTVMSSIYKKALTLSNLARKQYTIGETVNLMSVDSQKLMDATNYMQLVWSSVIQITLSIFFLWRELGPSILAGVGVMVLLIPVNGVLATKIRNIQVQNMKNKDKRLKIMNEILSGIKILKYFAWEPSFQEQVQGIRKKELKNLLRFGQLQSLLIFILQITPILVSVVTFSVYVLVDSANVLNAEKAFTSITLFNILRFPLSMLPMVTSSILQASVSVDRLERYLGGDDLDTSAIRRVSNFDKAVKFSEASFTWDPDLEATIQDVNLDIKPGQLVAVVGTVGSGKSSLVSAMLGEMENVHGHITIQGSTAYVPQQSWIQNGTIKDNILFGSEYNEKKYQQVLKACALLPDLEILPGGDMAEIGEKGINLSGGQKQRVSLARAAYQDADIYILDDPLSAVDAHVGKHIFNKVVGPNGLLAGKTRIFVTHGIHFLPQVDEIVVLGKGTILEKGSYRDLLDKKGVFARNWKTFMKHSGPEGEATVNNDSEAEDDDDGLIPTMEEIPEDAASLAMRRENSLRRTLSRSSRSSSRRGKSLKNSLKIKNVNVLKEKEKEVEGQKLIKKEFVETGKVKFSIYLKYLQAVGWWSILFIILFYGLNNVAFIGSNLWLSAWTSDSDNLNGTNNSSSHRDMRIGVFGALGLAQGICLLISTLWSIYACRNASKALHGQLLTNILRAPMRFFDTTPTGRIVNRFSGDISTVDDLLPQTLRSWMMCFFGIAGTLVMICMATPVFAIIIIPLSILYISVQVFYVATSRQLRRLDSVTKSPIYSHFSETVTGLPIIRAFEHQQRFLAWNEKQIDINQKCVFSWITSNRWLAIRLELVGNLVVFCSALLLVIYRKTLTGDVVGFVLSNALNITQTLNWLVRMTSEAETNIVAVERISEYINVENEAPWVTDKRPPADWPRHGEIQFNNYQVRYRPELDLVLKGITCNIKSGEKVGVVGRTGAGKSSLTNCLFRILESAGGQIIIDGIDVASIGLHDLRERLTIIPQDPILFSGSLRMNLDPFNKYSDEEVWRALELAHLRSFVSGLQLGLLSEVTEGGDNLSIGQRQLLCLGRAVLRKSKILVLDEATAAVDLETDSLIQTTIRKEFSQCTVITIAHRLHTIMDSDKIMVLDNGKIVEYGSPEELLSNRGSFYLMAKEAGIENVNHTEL
# Source text: (§1) The four intestinal segments including duodenum, jejunum, ileum, and colon from anesthetized rats were immediately removed by surgery and washed with KRB solution. Each section of the intestinal segments was then placed in cold (on ice), bubbled (O2:CO2 95:5) KRB buffer. The four intestinal segments were then cut into 2 cm pieces, respectively, and serosas were removed by blunt dissection. Peyer’s patches were excluded from the experiment by visually identified. The stripped tissues were mounted in chambers with exposed surface area of 0.49 cm^2. Temperature of the chambers was maintained at 37 ± 0.5°C. Each of the half-cells in the chambers was filled with 5 mL fresh KRB buffer (pH 6.5). Tissue viability was continuously controlled by potential difference (PD). Tissue with electrical values less than 2 mV was refused ([Moazed and Hiebert, 2007]; [Heinen et al., 2013]).
# In this study, the effects of the three efflux transporters on emodin intestinal absorption were investigated. Meanwhile, the influence of emodin on intestinal P-gp, MRP2, and MRP3 functions were also discussed. Solutions with three concentrations (low, middle, and high) of emodin were filled in the mucosal or serosal compartment to measure the bidirectional transport characteristic. […] In the emodin impact experiments, digoxin, pravastatin, and teniposide were employed as P-gp, MRP2, and MRP3 substrates. Changes of the bidirectional transport characteristic were measured before and after adding emodin to the mucosal side.
# (§2) Frozen samples were adequately vortexed after thawing at the room temperature; 10 μL suitable IS solution was added to 200 μL samples; 200 μL methanol was added after a thorough vortex mixing for 30 s. The mixtures were then vortexed for 30 s and centrifuged at 15,000 rpm for 30 min. Finally, 5 μL of supernatant was injected into the LC-MS/MS system.
# (§3) The quantifications of the compounds were performed by the TSQ Quantum Ultra Triple Quadrupole LC-MS/MS system from Thermo Fisher Scientific. Chromatography was carried out using an Agilent Poroshell 120 SB-C18 (2.7 μm, 2.1 mm × 100 mm) column with a Phenomenex AFO-8497 C18 pre-column, operating at 30°C. Adaptive gradient elution methods were applied for the analytes. The flow rate of the mobile phase was kept at 0.2 mL min^-1. Flow was directed to the ion spray interface. All measurements were carried out in negative ESI mode. Ion spray voltage was -2500 V. Vaporizer and capillary temperatures were set at 250 and 350°C, respectively. Auto sampler temperature was set at 10°C. Sheath gas and aux gas were set at 30 and 15 Arb, respectively. […] Peak integrations and calibrations were carried out using LC Quan 2.5.2 software from Thermo Fisher Scientific.
# The Q (accumulative quantity), Papp (apparent permeability), Er (efflux ratio), Pr (Papp ratio), and Err (Er ratio) across the excited rat intestinal segments in the Ussing chamber were calculated using the following equations ([Li et al., 2012]; [Huang et al., 2016]): […]
# (§4) where Cn (nM) is the concentration of the drug at the time point (n), Q (nM) is the accumulated absorption amount, A is the exposed surface area of the intestine (0.49 cm^2), dQ/dt (nM⋅s^-1) is the amount of the drug transported, and C0 (nM) is the initial concentration of the test drug. Experiments were performed in batches, so control groups were set as one for each batch.
# [2] = target: T1, MRP2; assay: Ussing chamber bidirectional transport, model validation for MRP2 (pravastatin substrate, MK571 inhibitor); type: in vitro ADME; set-up: intestinal segments including duodenum, jejunum, ileum, and colon from anesthetized rats were immediately removed by surgery; from tissue; host or cells: stripped rat intestine (jejunum and ileum in validation; jejunum for the emodin studies); conditions: rat
# Source text: as §1, with “(PD).” for “(PD). Tissue with electrical values less than 2 mV was refused ([Moazed and Hiebert, 2007]; [Heinen et al., 2013]).”
# Digoxin, pravastatin, and teniposide were employed as the test substrates of P-gp, MRP2, and MRP3. […] The experiments were started after 30 min equilibration time, by changing the KRB buffer on both sides; 5 mL KRB solution with different test compounds was filled in the mucosal or serosal compartment; meanwhile, equal volume fresh buffer was added to the other compartment. […] The bidirectional transport studies with specific inhibitors were assessed to validate this model whether or not suitable for P-gp, MRP2, and MRP3 studies.
# as §2
# as §3, with “Chromatography was carried out using an Agilent Poroshell 120 SB-C18 (2.7 μm, 2.1 mm × 100 mm) column with a Phenomenex AFO-8497 C18 pre-column, operating at 30°C.” left out
# as §4
structure (smiles),measurement,setting,value
CC[C@H](C)C(=O)O[C@H]1C[C@H](O)C=C2C=C[C@H](C)[C@H](CC[C@@H](O)C[C@@H](O)CC(=O)O)[C@H]21 [Pravastatin],Change of Papp and Er values of pravastatin after emodin added,"[1]; pravastatin 47 μM, emodin 185, 370, 740 μM",No significant differences
same,Papp at 47 μM,"[1]; pH 6.5, pravastatin 47 μM, without emodin, read-out: Papp M-S, control",64.5 ± 27.9 ×10⁻⁶ cm/s
same,Papp at 47 μM,"[1]; pH 6.5, pravastatin 47 μM, without emodin, read-out: Papp S-M, control",82.2 ± 40.4 ×10⁻⁶ cm/s
same,Papp at 47 μM,"[1]; pH 6.5, with emodin 185 μM on mucosal side, pravastatin 47 μM, emodin 185 μM on mucosal side, read-out: Papp M-S in the presence of emodin",123 ± 19.9 ×10⁻⁶ cm/s
same,Papp at 47 μM,"[1]; pH 6.5, with emodin 185 μM on mucosal side, pravastatin 47 μM, emodin 185 μM on mucosal side, read-out: Papp S-M in the presence of emodin",70.3 ± 19.8 ×10⁻⁶ cm/s
same,Papp at 47 μM,"[1]; pH 6.5, with emodin 370 μM on mucosal side, pravastatin 47 μM, emodin 370 μM on mucosal side, read-out: Papp M-S in the presence of emodin",106 ± 40.3 ×10⁻⁶ cm/s
same,Papp at 47 μM,"[1]; pH 6.5, with emodin 370 μM on mucosal side, pravastatin 47 μM, emodin 370 μM on mucosal side, read-out: Papp S-M in the presence of emodin",90.8 ± 12.7 ×10⁻⁶ cm/s
same,Papp at 47 μM,"[1]; pH 6.5, with emodin 740 μM on mucosal side, pravastatin 47 μM, emodin 740 μM on mucosal side, read-out: Papp M-S in the presence of emodin",93.8 ± 28.7 ×10⁻⁶ cm/s
same,Papp at 47 μM,"[1]; pH 6.5, with emodin 740 μM on mucosal side, pravastatin 47 μM, emodin 740 μM on mucosal side, read-out: Papp S-M in the presence of emodin",105 ± 27.3 ×10⁻⁶ cm/s
same,Papp,"[2]; pH 6.5, rat duodenum, without inhibitor, read-out: Papp M-S, control",124 ± 67.3 ×10⁻⁶ cm/s
same,Papp,"[2]; pH 6.5, rat duodenum, without inhibitor, read-out: Papp S-M, control",287 ± 165 ×10⁻⁶ cm/s
same,Papp,"[2]; pH 6.5, rat ileum, without inhibitor, read-out: Papp M-S, control",122 ± 52.5 ×10⁻⁶ cm/s
same,Papp,"[2]; pH 6.5, rat ileum, without inhibitor, read-out: Papp S-M, control",678 ± 325 ×10⁻⁶ cm/s
same,Papp,"[2]; pH 6.5, rat jejunum, without inhibitor, read-out: Papp M-S, control",146 ± 39.4 ×10⁻⁶ cm/s
same,Papp,"[2]; pH 6.5, rat jejunum, without inhibitor, read-out: Papp S-M, control",496 ± 226 ×10⁻⁶ cm/s
same,Papp,"[2]; pH 6.5, with MK571 186 μM on mucosal side, rat jejunum, with MK571 186 μM on mucosal side, read-out: Papp S-M, with inhibitor",127 ± 33.4 ×10⁻⁶ cm/s
same,Papp,"[2]; pH 6.5, with MK571 186 μM, mucosal side, rat duodenum, with MK571 186 μM on mucosal side, read-out: Papp M-S, with inhibitor",77.9 ± 14.8 ×10⁻⁶ cm/s
same,Papp,"[2]; pH 6.5, with MK571 186 μM, mucosal side, rat duodenum, with MK571 186 μM on mucosal side, read-out: Papp S-M, with inhibitor",112 ± 52.7 ×10⁻⁶ cm/s
same,Papp,"[2]; pH 6.5, with MK571 186 μM, mucosal side, rat ileum, with MK571 186 μM on mucosal side, read-out: Papp M-S, with inhibitor",124 ± 67.9 ×10⁻⁶ cm/s
same,Papp,"[2]; pH 6.5, with MK571 186 μM, mucosal side, rat ileum, with MK571 186 μM on mucosal side, read-out: Papp S-M, with inhibitor",224 ± 141 ×10⁻⁶ cm/s
same,Papp,"[2]; pH 6.5, with MK571 186 μM, mucosal side, rat jejunum, with MK571 186 μM on mucosal side, read-out: Papp M-S, with inhibitor",107 ± 26.8 ×10⁻⁶ cm/s

# From article PMC6023986, “Interactions Between Emodin and Efflux Transporters on Rat Enterocyte by a Validated Ussing Chamber Technique” (Frontiers in Pharmacology, 2018)
